According to PubChem BioAssay (NCI):
Values joined by “and” are separate entries in the source; they are usually repeats but may differ in a detail not shown here. Equal values may be shown once.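 Exposure lasted 48 hours, with cells grown in 96-well plates and compounds tested at five concentrations. GI50 = concentration required for 50% inhibition of growth. TGI: total growth inhibition.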

What was measured:
Experiment in all cases: NCI-60 cell line screen, 48 h
[1] = tested on: IGROV1 ovarian
[2] = tested on: SF-295 CNS
[3] = tested on: TK-10 renal
[4] = tested on: SK-OV-3 ovarian
[5] = tested on: UO-31 renal
[6] = tested on: A549 NSCLC
[7] = tested on: M14 melanoma
[8] = tested on: SW-620 colon
[9] = tested on: UACC-257 melanoma
[10] = tested on: DU-145 prostate

SMILES	TGI [1]	TGI [2]	TGI [3]	TGI [4] [µM]	TGI [5] [µM]	TGI [6]	TGI [7]	TGI [8]	TGI [9] [µM]	GI50 [1] [µM]	GI50 [10] [µM]	TGI [10]	GI50 [2] [µM]	GI50 [3] [µM]	GI50 [4] [µM]	GI50 [5] [µM]	GI50 [6] [µM]	GI50 [7] [µM]	GI50 [8] [µM]	GI50 [9] [µM]
N#CCCN(CCC#N)c1ccc(/C=C(/NC(=O)c2cc([N+](=O)[O-])ccc2Cl)C(=O)NN)cc1	> 100 µM	> 100 µM	> 100 µM	> 100	> 100	> 100 µM	> 100 µM	> 100 µM	> 100											
CN1CCN(Cc2ccc(NC(=O)c3cncc(C#Cc4c(N)ncc5ccc(C#N)cc45)c3)cc2C(F)(F)F)CC1	1.99 µM	18 µM	1.87 µM	17.5	1.73	1.68 µM	0.729 µM	1.53 µM	1.78	0.816	0.829	1.59 µM	8.67	0.969	8.27	0.971	0.867	0.0668	0.696	0.483
NC1N=Nc2ccccc21 (configuration not stated)	> 100 µM	> 100 µM	> 100 µM	> 100	> 100	> 100 µM	> 100 µM	> 100 µM	> 100											
CCc1ccccc1NC(=O)C(=O)C(C#N)c1ccccc1Cl (configuration not stated)	> 100 µM	> 100 µM	6.31 µM		> 100	> 100 µM	> 100 µM	> 100 µM	> 100											
COc1ccc(Nc2nc3cc(C(F)(F)F)ccc3nc2-c2ccccc2)cc1OC	> 100 µM	53.3 µM	43 µM	66.5	> 100	> 100 µM	> 100 µM	> 100 µM	99.4											
Cc1cc(=O)[nH]c(CNC(=O)c2ccc3ccccc3c2)n1	> 100 µM	> 100 µM	> 100 µM	> 100	> 100	> 100 µM	> 100 µM	> 100 µM	> 100											
c1ccc2c(c1)SC(=C1Sc3ccccc3S1)S2	> 100 µM	> 100 µM	> 100 µM	> 100	> 100	> 100 µM	> 100 µM	> 100 µM												
[O-]/N=[N+](/[O-])C1CCCCC1=[N+]1CCOCC1 (configuration not stated)		> 100 µM	> 100 µM	> 100	> 100	> 100 µM	> 100 µM	> 100 µM	> 100											
COc1cc(OC)cc(Oc2cnc3cc(N)cc(N)c3n2)c1		32.7 µM	38.5 µM	74.5	46.8	> 100 µM	26.8 µM	43.7 µM	33.7		17.6	38.5 µM	11.6	16.6	23.7	22.3	22.8	13.4	18.6	18
N/C=N/S(=O)(=O)c1ccc(NC(=O)COC(=O)c2cccc3c(=O)c4ccccc4[nH]c23)cc1	> 100 µM	> 100 µM	> 100 µM	> 100	> 100	> 100 µM	> 100 µM	> 100 µM	> 100											
COc1cc2c(c(O)c1Cl)C(=O)c1c(O)cc(C[C@H](C)O)cc1[C@H]2[C@H]1c2cc(C[C@H](C)O)cc(O)c2C(=O)c2c1cc(OC)c(Cl)c2O	39 µM and > 100 µM	5.91 µM and 53.6 µM	33 µM and > 100 µM			75 µM and > 100 µM	75 µM and > 100 µM	75 µM and > 100 µM				75 µM and > 100 µM								
CN1C(=O)CC2(C)c3cc(O)cc(Br)c3N(C)C12 (configuration not stated)	> 100 µM	> 100 µM	> 100 µM	> 100	> 100	> 100 µM	> 100 µM	> 100 µM	> 100											
CC(c1cc(Cl)ccc1O)c1cc(Cl)ccc1O		7.83 µM	24.7 µM	26.4	10.8	18.9 µM	9.82 µM	13.3 µM			5.2	16.3 µM	2.3	11.8	13.4	2.3	4.15	2.97	3.7	
O=C(CCC(=O)Nc1ccc(Cl)c(Cl)c1)CC(=O)c1ccc2ccccc2c1	> 100 µM	> 100 µM	> 100 µM		> 100	> 100 µM	> 100 µM	> 100 µM	> 100											
O=C(O)CN(c1ccccc1)S(=O)(=O)c1cccc([N+](=O)[O-])c1	> 100 µM	> 100 µM	> 100 µM	> 100	> 100	> 100 µM	> 100 µM	> 100 µM	> 100											
O=C(c1ccccc1)C(Cl)C(Cl)c1ccccc1 (configuration not stated)	11.4 µM	26 µM	9.12 µM	30.5	3.45	34.2 µM	4.79 µM	3.36 µM		3.45	2.89	10.2 µM	12.9	3.14	16.8	1.62	18.3	2.12	1.41	
O=C(COc1ccccc1Cl)N1N=C(c2ccccc2)CC1(O)c1ccccc1 (configuration not stated)	55.7 µM	34.8 µM	49.2 µM	47.7	35.9	44.4 µM	31.9 µM	79.1 µM	45.2											
CCCCCCCCCCCCCC[n+]1ccccc1		2.62 µM	1.81 µM	4.26	4.82	2.84 µM	1.98 µM	2.59 µM	3.07		1.17	2.85 µM	0.9	0.491	1.45	1.42	1.22	0.459	0.779	0.93
O=C(Cc1ccccc1[N+](=O)[O-])C(CO)c1ccccc1[N+](=O)[O-] (configuration not stated)	> 100 µM	> 100 µM	> 100 µM	> 100	> 100	> 100 µM	> 100 µM	> 100 µM	> 100											
CC1CCC2C(C)C(=O)OC3OC4(C)CCC1C32OO4 (configuration not stated)	> 100 µM	> 100 µM	> 100 µM	> 100	> 100	> 100 µM	> 100 µM	> 100 µM	> 100					> 100					> 100	> 100
